According to patent publication US7453006B2, “Inositol derivatives for increasing chloride secretion and inhibiting inflammation” (Inologic, Inc., priority 2000, dated 2008):
Values joined by “and” are separate entries in the source; they are usually repeats but may differ in a detail not shown here. Equal entries are not always repeated. “Also recorded” adds a separate entry of the source.

What was measured:
[1] = tested on: arachidonic acid-induced inflammation in mouse ears; assay: arachidonic acid-induced inflammation in mouse ears; format: in vivo; conditions: for Ear Thickness: 20 nanomoles/ear topical 30 min before arachidonic acid, measured 60 min after arachidonic acid, control 56.5 ± 1.57
Procedure: Arachidonic Acid (Nu-Chek, Elysian, Minn. 56028); Indomethacin (stock=12.5 mg/mL acetone). Prednisolone (Sigma Chem, P6004) 20 mM dissolved in acetone; Animals: Female Balb/c mice (B&K laboratories) and Swiss-Webster hybrid (B& K Laboratory, Kent, Wash.)
The right ear of each mouse was used for the test compound. Unless otherwise indicated each compound was adjusted to 20 mM by dilution into DMSO or DMSO/5% Pluronic F127 as indicated and 1 or 2 microliters were applied to the test ear. Thirty minutes after each compound was applied, 4 mg arachidonic acid was applied (4 μL/ear; 2 μL/side) to both ears of each mouse. Measurements of edema were taken 60 min after the application of arachidonic acid with microcalipers (Oditest, Scientific Supply and Equipment) unless otherwise indicated. The results are shown in FIG. 15 as millimeters×10^−2 measured at the thickest point of each ear. Control measurements were performed on ears that were only treated with arachidonic acid.
Response to prednisolone (20 μL of 20 mM/ear; 10 μl/side) added 3 hrs prior 20′ to arachidonic acid or indomethacin (5 μg/ear) added 30 min prior to test compounds was determined. The results are shown in Table A, where the anti-inflammatory/inflammatory effects of 20 nanomoles/ear of the indicated compounds were tested as described in Methods. Each plus represents a change from control (arachidonic acid alone) of 2.5 mm×10^−2. Effects were compared with those of Indomethacin (400 nmols/ear).
Acute inflammation: Membrane permeant inositol polyphosphate analogs were administered topically and tested for inhibition of inflammatory symptoms induced by arachidonic acid on the ear of Swiss Webster mice.

T84 cells = assay: Colonic Epithelial Cell Assay (Isc across T84 monolayers, Ussing chambers); format: cell-based, human; conditions: for Isc response to carbachol / inhibition of the Isc response to carbachol / Isc response to thapsigargin following carbachol: 30 min preincubation; for increase in short circuit current (Isc): T84 monolayers in Ussing chambers, differing concentrations (text: colonic and airway epithelial cells)
Procedure: Cl^− secretion in colonic epithelial cells was measured as short circuit current (Isc) across T84 monolayers grown to confluence on Snap-wells (Costar) and mounted in Ussing chambers equipped with voltage clamps (Physiologic Instruments, San Diego). Data was acquired and analyzed using AAcquire and Analyze@ software (Physiologic Instruments). T84 cells (passages 18-48) were maintained as described previously in McRoberts, J. A. et al., “Cyclic AMP and Ca^2+-activated K^+ transport pathway in the apical membrane of a human colonic epithelial cell line,” J. Biol. Chem. 260:14163-14172 (1985). After […] of incubation on Snap-wells, monolayers had formed tight junctions and were preincubated with […] Bt2D-myo-Ins(3,4,5,6)P4/AM for 30-min. prior to mounting. An extracellular concentration of 200 uM corresponds to an intracellular concentration of 4 uM (Vajanaphnich, et al., “Long-term uncoupling of chloride secretion from intracellular calcium levels by Ins(3,4,5,6)P4,” Nature 371:711-714 (1994)). […]

[2] = tested on: CF Human Nasal Epithelial (CFHNE) cells; assay: Cystic Fibrosis Human Nasal Epithelial Cell Assay (Isc, Ussing chambers); format: cell-based
Procedure: CF Human Nasal Epithelial (CFHNE) Cell Isolation and Proliferation
Nasal Polyps were surgically obtained from a CF patient at Children's Hospital (Seattle, Wash.), transported on ice in a sterile container containing a 1:1 mixture of Dulbecco's modification of minimum essential medium Eagle and Ham's F-12 nutrient medium (DMEM/F-12) (Irvine Scientific, Santa Ana, Calif.) supplemented with 100 U/mL penicillin, 0.1 mg/mL streptomycin, 10 mM HEPES, and 2 mM L-glutamine. The tissue samples were aseptically removed from the transport medium and washed (repeated 5 times) by suspending in 40 mL of Joklik's modification of minimum essential medium Eagle (JMEM) at 4° C., and centrifuging at 500 rpm. The supernatant was aspirated and discarded. The tissue was then transferred to JMEM containing 200 U/mL penicillin, 0.2 mg/mL streptomycin, 0.1 mg/mL gentamycin sulfate (Clonetics, San Diego, Calif.), and 0.1 μg/mL amphotericin-B (Clonetics), and 0.1% Protease, washed an additional two times, suspended in […] in a 10 cm tissue culture dish, and incubated at 4° C. for 24 hours. The tissue samples were then gently triturated, the connective tissue aseptically removed, and the remaining cell suspension centrifuged at 1000 rpm. The supernatant was aspirated and the pellet was resuspended in 10 mL proliferation media, consisting of Keratinocyte-Serum Free Medium (KSFM) (Gibco-BRL, Grand Island, N.Y.) containing 5 ng/ml EGF (Gibco), 50 μg/mL BPE (Gibco), 5 μg/mL insulin, 5 μg/mL transferrin, 5 μg/ml sodium selenite, 10 nM 3,3′,5-triiodo-L-thyronine, 200 nM hydrocortisone, 100 U/mL penicillin, 0.1 mg/mL streptomycin, and 2 mM L-glutamine. The cell suspension was transferred to 2.10 cm tissue culture dishes coated with 3 μg/cm^2 rat-tail collagen (Type I) (Becton-Dickinson, Bedford, Mass.), incubated at 37° C. in an humidified atmosphere of 5% CO2 and 95% air. The cells were allowed to grow for 6 days (˜70% confluence) with the media being replaced with fresh media every other day. The cells were then trypsinized using 0.025% trypsin-EDTA for 5 min. The cell suspension was collected, the trypsin deactivated with 10% Fetal Bovine Serum, and centrifuged at 1000 rpm for 5 min. The cells were then counted using an hemocytometer with a yield of 3×10^6 cells per dish. The supernatant was aspirated and the cells were resuspended in KSFM and plated at a density of 10^4 cells/cm^2.
CFHNE Cell Ussing Chamber Preparation
The CFHNE cells were prepared for Ussing Chamber studies using Snapwell permeable supports (0.4 μm pore size) (Corning Costar, Cambridge, Mass.) coated with 3 μg/cm^2 rat-tail collagen (type 1). Cells were plated at 9×10^3 cells/cm^2 in KSFM. After 2 days, an air-liquid interface (ALI) was initiated in DMEM/F-12 containing: 2% Fetal Clone III (Hyclone, Logan, Utah), 2.5 μg/mL insulin, 2.5 μg/mL transferrin, 2.5 μg/mL sodium selenite, 20 nM hydrocortisone, 1.5 μM epinephrine, 50 μg/mL BPE, 1 nM 3,3′,5-triiodo-L-thyronine, 3.3 nM All-trans retinoic acid, 250 nM ethanolamine, 250 nM O-phosporylethanolamine, 100 U/mL penicillin, 0.1 mg/ml streptomycin, and 2 mM L-glutamine. The CFHNE monolayers reached maximal resistance (˜200 Ω/cm^2) 5-7 days after initiation of ALI. All media/reagents, unless otherwise specified, were supplied by Sigma Chemical Co., St. Louis, Mo.

[3] = topical, ear of Swiss Webster mice

How did the “Ear Thickness” value [1] turn out when “2,3,5-tri-O-butyryl-myo-inositol 1,4,6-trisphosphate hexakis-(acetoxymethyl) ester [TMX/AM]” was run?
The value was 44.1 ± 2.3 mm × 10^−2.

Which “basal Isc” value (T84 cells; 200 μM, acute treatment, T84) does the source give for `CCCC(=O)OC1C(OP(=O)(OCOC(C)=O)OCOC(C)=O)C(OP(=O)(OCOC(C)=O)OCOC(C)=O)C(OP(=O)(OCOC(C)=O)OCOC(C)=O)C(OP(=O)(OCOC(C)=O)OCOC(C)=O)C1(CCC)OP(=O)(OCOC(C)=O)OCOC(C)=O` (racemic) [Compound D, rac-1-O-butyryl-2-C-propyl-myo-inositol 2,3,4,5,6-pentakisphosphate-dekakis(acetoxymethyl) ester] here?
The value was “small increase in basal Isc; also recorded: small acute effect increasing basal Isc”.

What about the “subsequent carbachol-stimulated Isc” value (T84 cells; 200 μM, acute treatment, T84) of the same compound?
The value was “little effect”.

What about the “Ear Thickness” value [1] of the same compound?
Its value is 44.0 ± 1.4 mm × 10^−2 and 44.2 ± 6.5 mm × 10^−2.

What does the source list for `COCCOCOC12CCCCOC1C(OP(=O)(OCOC(C)=O)OCOC(C)=O)C(OP(=O)(OCOC(C)=O)OCOC(C)=O)C(OP(=O)(OCOC(C)=O)OCOC(C)=O)C2OP(=O)(OCOC(C)=O)OCOC(C)=O` (centres unmarked) [Compound C, (5aa,6a,7b,8a,9b,9aa)-6,7,8,9-tetrakis[[bis(acetoxymethoxy)-phosphoryl]oxy]-5a-[(2′-methoxy)ethoxy]methoxy-decahydro-benzo[b]oxepin]?
Isc response to carbachol (T84 cells; 200 μM, T84): reduces the magnitude; inhibition of the Isc response to carbachol (T84 cells; 200 μM, T84): approximately 50%; Isc response to carbachol (T84 cells; 400 μM, T84): reduces the magnitude; Isc response to thapsigargin following carbachol (T84 cells; 400 μM, T84): partially restores the response of the monolayers to thapsigargin; inhibition of the Isc response to carbachol (T84 cells; 400 μM, T84): approximately 50%; Ear Thickness [1]: 50.0 ± 5.5 mm × 10^−2

How did the “Isc after ATP” value ([2]; ATP 10^−4 M, monolayers pretreated with vehicle) turn out when `Nc1ncnc2c1ncn2[C@@H]1O[C@H](COP(=O)(O)OP(=O)(O)OP(=O)(O)O)[C@@H](O)[C@H]1O` [ATP, adenosine triphosphate, reference compound] was run?
Its value is “transient increase in Isc followed by a prolonged decrease”.

`CCCC(=O)OC1C(OC(=O)CCC)C(OP(=O)(OCOC(C)=O)OCOC(C)=O)C(OP(=O)(OCOC(C)=O)OCOC(C)=O)C(OP(=O)(OCOC(C)=O)OCOC(C)=O)C1OP(=O)(OCOC(C)=O)OCOC(C)=O` [D-2,3-Di-O-butyryl-myo-inositol 1,4,5,6 tetrakisphosphate octakis(acetoxymethyl)ester, reference compound] was tested. Which “dose with inhibitory effect comparable in intensity to that of indomethacin (250 μg/animal)” value [1, 3] did it give?
The value was 20-30 μg/animal.

Which “prolonged decrease in Isc after ATP (negative component of the ATP effect)” value ([2]; CFHNE monolayers exposed to TMX for 10 min, ATP 10^−4 M) does the source give for “2,3,5-tri-O-butyryl-myo-inositol 1,4,6-trisphosphate hexakis(proprionoxymethyl)ester [TMX]” here?
Its value is “attenuated; also recorded: reverse the negative component of the ATP effect on Isc”.

What about the “increase in short circuit current (Isc)” value (T84 cells) of the same compound?
Its value is “prolonged increase in Isc similar to cyclic AMP”.

`N=C(N)NC(=O)c1nc(Cl)c(N)nc1N` [Amiloride, amiloride, reference compound] was tested. Which “decrease in Isc” value ([2]; amiloride 100 μM, apical compartment, in 19 of 23 monolayers) did it give?
Its value is 1.01 μAmps/cm^2.

For `CCCC(=O)O[C@@H]1[C@H](OC(=O)CCC)[C@H](OP(=O)(OCOC(=O)CC)OCOC(=O)CC)[C@@H](OP(=O)(OCOC(=O)CC)OCOC(=O)CC)[C@H](OC(=O)CCC)[C@H]1OP(=O)(OCOC(=O)CC)OCOC(=O)CC` [ent-TMX, 1,2,5-tri-O-butyryl-myo-inositol 3,4,6-trisphosphate hexakis-(proprionoxymethyl) ester], which “increase in short circuit current (Isc)” value (T84 cells) is on record?
Its value is “inactive”.

`CCCC(=O)OC12CCCOC1C(OP(=O)(OCOC(C)=O)OCOC(C)=O)C(OP(=O)(OCOC(C)=O)OCOC(C)=O)C(OP(=O)(OCOC(C)=O)OCOC(C)=O)C2OP(=O)(OCOC(C)=O)OCOC(C)=O` (centres unmarked) [Compound G, (4aa, 5a,6b,7a,8b,8aa)-5,6,7,8-tetrakis[[bis(acetoxymethoxy)-phosphoryl]oxy]-4a-butyryloxy-octahydro-chromen] was tested. Which “Isc response to carbachol” value (T84 cells; 200 μM, T84) did it give?
Its value is “did not affect”.

And the “Isc response to thapsigargin following carbachol” value (T84 cells; 200 μM, T84)?
The value was “reversed the inhibition of thapsigargin induced chloride secretion; also recorded: reverses the carbachol-mediated inhibition of thapsigargin-stimulated increase in Isc”.

`CC(=O)OCOP(=O)(OCOC(C)=O)O[C@@H]1[C@@H](OP(=O)(OCOC(C)=O)OCOC(C)=O)[C@@H]2O[C@H]3CCC[C@@]2(O3)[C@H](OP(=O)(OCOC(C)=O)OCOC(C)=O)[C@H]1OP(=O)(OCOC(C)=O)OCOC(C)=O` [Tri-cyclo, (1S, 2R, 3S, 4R, 5S, 6S, 8R)-2,3,4,5-tetrakis[[bis-(acetoxymethoxy)phosphoryl]oxy]-7,12-dioxa-tricyclo-[6.3.1.0(1,6)]-dodecane] was tested. Which “Ear Thickness” value [1] did it give?
The value was 49.8 ± 2.5 mm × 10^−2.

How did the “topical anti-inflammatory effects, values” [1, 3] turn out when `CCCC(=O)OC1C(OC(=O)CCC)C(OP(=O)(OCOC(=O)CC)OCOC(=O)CC)C(OP(=O)(OCOC(=O)CC)OCOC(=O)CC)C(OP(=O)(OCOC(=O)CC)OCOC(=O)CC)C1OP(=O)(OCOC(=O)CC)OCOC(=O)CC` [D-2,3-Di-O-butyryl-myo-inositol 1,4,5,6 tetrakisphosphate octakis(propionoxymethyl)ester] was run?
Its value is 0.25-1.5 μg/animal.
